Measurements: ChEMBL document CHEMBL1201862, “PubChem BioAssay data set” (2004)
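Protocol summary: plate cells (96-well), add compound at 5 concentrations, incubate 48 h, interpolate endpoints linearly. GI50 marks 50% less growth.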 The source made the active and inactive calls. No stated cut-off is given here; in the data, active = GI50 up to about 1.1 µM and inactive = higher.

What was measured:
Experiment in all cases: NCI anticancer screen, dose series, 48 h
[1] = test system: M19-MEL
[2] = test system: LXFL 529
[3] = test system: DMS-273
[4] = test system: KM-20L2
[5] = test system: DMS-114
[6] = test system: DLD-1
[7] = test system: HOP-18
[8] = test system: SNB-78
[9] = test system: RXF 631

Measured: GI50

COc1ccc(N2C(=O)C3c4[nH]c5ccccc5c4C4CCCCC4C3C2=O)cc1 (centres undefined)
inactive: [1] 28.8 µM | [2] 22.2 µM | [3] 6.75 µM | [4] 39.4 µM | [5] 8.63 µM | [6] 49 µM | [7] 22.4 µM | [8] 2.29 µM

O=C1CC23CCCCCCCCCCC2(C1)CC(=O)C3 (centres undefined)
inactive: [1] 20.7 µM | [2] 23.6 µM | [3] 23.1 µM | [5] 26.7 µM | [6] 34 µM | [7] 24 µM

C=CCOCCCC(=O)C(=[N+]=[N-])C(=O)OC
inactive: [1] > 100 µM | [2] > 100 µM | [4] > 100 µM | [6] > 100 µM | [9] > 100 µM | [7] > 100 µM | [8] > 100 µM

O=S(=O)(SCc1ccccc1)C(c1ccccc1)c1ccccc1
inactive: [1] 32.4 µM | [2] 26.5 µM | [3] 27.4 µM | [4] 20.6 µM | [5] 19.3 µM | [6] 13.2 µM | [8] 30.5 µM

CC(=O)Nc1ccc(/C=c2\sc3nnc(CCC(=O)Nc4ccccc4Cl)n3c2=O)cc1
inactive: [1] 37.4 µM | [2] 30 µM | [5] 55.5 µM | [6] 32.4 µM | [9] 32.9 µM | [7] 52.8 µM | [8] 47.3 µM

CC(=O)NNc1nc(C)c(C(=O)NNC(=O)C(=O)Nc2nc3ccc([N+](=O)[O-])cc3s2)s1
inactive: [1] 45.5 µM | [2] 49.9 µM | [3] 62.4 µM | [4] > 100 µM | [5] 24.4 µM | [6] 46.1 µM | [9] 41.6 µM | [8] 69.5 µM

COc1nc2c(nc(N)n2C2OC(CO)C(O)C(O)C2O)c(=O)[nH]1 (centres undefined)
inactive: [1] > 100 µM | [2] > 100 µM | [4] > 100 µM | [6] > 100 µM | [7] > 100 µM | [8] > 100 µM

CCOC(=O)NC1C2CC(=O)C(O2)C1OCc1ccccc1 (centres undefined)
inactive: [1] > 100 µM | [2] > 100 µM | [3] > 100 µM | [4] > 100 µM | [5] > 100 µM | [6] > 100 µM | [9] > 100 µM | [7] > 100 µM | [8] > 100 µM

C=C1C(=O)OC2CC(C)C3C=CC(=O)C3CC12 (centres undefined)
inactive: [1] 2.72 µM | [2] 1.26 µM | [3] 3.54 µM | [4] 3.52 µM | [5] 2.44 µM | [9] 3.88 µM | [7] 5.77 µM | [8] 3.42 µM

CCCCCCCCCCCCOC(=S)NC
inactive: [2] 17 µM | [3] 19.5 µM | [4] 19.4 µM | [5] 20.8 µM | [6] 17.1 µM | [7] 19 µM | [8] 27.8 µM

COc1ccc(OC)c2c(C(=O)O)c(Cc3ccccc3)ccc12
inactive: [1] > 100 µM | [2] > 100 µM | [3] > 100 µM | [4] > 100 µM | [5] > 100 µM | [6] > 100 µM | [7] > 100 µM

O=c1cc(-c2ccccc2)[nH]c2c(Cl)cccc12
inactive: [1] 9.18 µM | [2] 31.5 µM | [3] 7.11 µM | [4] 14.4 µM | [5] 7.66 µM | [6] 20.5 µM | [9] 51.9 µM

C/C(CC(=O)NCCc1ccccc1)=N\NC(=O)C[n+]1ccccc1
inactive: [1] > 100 µM | [2] > 100 µM | [3] > 100 µM | [4] > 100 µM | [5] > 100 µM | [6] > 100 µM | [9] > 100 µM | [8] > 100 µM

Nc1ccc(C(=O)N/C(=C\c2cccc([N+](=O)[O-])c2)c2nc3c(O)nc(S)nc3[nH]2)cc1
inactive: [1] > 100 µM | [2] > 57.7 µM | [4] > 100 µM | [5] > 86.3 µM | [6] > 100 µM | [9] 37.2 µM | [8] 39.3 µM

C[Si](C)(C)CC(N)=O
inactive: [1] > 100 µM | [2] > 100 µM | [3] > 100 µM | [4] > 100 µM | [5] > 100 µM | [6] > 100 µM | [9] > 100 µM | [7] > 100 µM | [8] > 100 µM

CCOc1ccccc1NC(=O)CC(C(=O)OC)C(=O)C(=O)OC (centres undefined)
inactive: [1] > 100 µM | [2] > 100 µM | [3] > 100 µM | [4] > 100 µM | [5] > 100 µM | [9] > 100 µM | [7] > 100 µM | [8] > 100 µM

N#CC(C(=O)CCC(=O)Nc1ccc(Cl)c(Cl)c1)c1ccccc1 (centres undefined)
inactive: [1] > 100 µM | [3] > 100 µM | [4] > 100 µM | [5] > 100 µM | [6] > 100 µM | [7] > 100 µM | [8] > 100 µM

CC(=O)NNc1nc(C)c(C(=O)/C=C/c2ccc(NC(C)=O)cc2)s1
inactive: [1] > 100 µM | [3] > 100 µM | [4] > 100 µM | [6] > 100 µM | [9] > 100 µM | [7] > 100 µM | [8] > 100 µM

CC1(C)OC2COC3(CNO)OC(C)(C)OC3C2O1 (centres undefined)
inactive: [1] > 100 µM | [3] > 100 µM | [5] > 100 µM | [6] > 100 µM | [7] > 100 µM | [8] > 100 µM

C(=C\c1cc(CCc2nc3ccccc3[nH]2)n[nH]1)/c1ccccc1
inactive: [1] > 100 µM | [4] > 100 µM | [5] > 100 µM | [6] > 100 µM | [9] > 100 µM | [7] > 100 µM

CCOC(=O)CNC(=O)c1nc[nH]c1/N=N/N(C)C
inactive: [1] > 100 µM | [2] > 100 µM | [3] > 100 µM | [5] > 100 µM | [6] > 100 µM

COC(=O)C(CC(=O)c1ccccc1)c1ccccc1NC(C)=O (centres undefined)
inactive: [1] > 100 µM | [2] > 100 µM | [4] > 100 µM | [5] > 100 µM | [6] > 100 µM | [9] > 100 µM | [7] > 100 µM | [8] > 100 µM

COC1C=C(Nc2cccc(Cl)c2)C(=O)C1 (centres undefined)
inactive: [1] > 100 µM | [2] 50.8 µM | [3] 50.4 µM | [4] 55.5 µM | [5] 34.3 µM | [6] 51.4 µM | [7] 19.1 µM | [8] 48.4 µM

O=C(CC/C(CC(=O)c1ccc(Br)cc1)=N\O)Nc1ccc(Cl)c(Cl)c1
inactive: [1] 64.7 µM | [2] 47.3 µM | [3] 82.8 µM | [4] > 100 µM | [5] 27.9 µM | [6] > 100 µM | [7] 60.5 µM | [8] > 100 µM

CC1CC2(S(=O)(=O)c3ccccc3)ON1CC2S(=O)(=O)c1ccccc1 (centres undefined)
inactive: [1] > 100 µM | [2] > 100 µM | [3] > 100 µM | [4] > 100 µM | [5] > 100 µM | [6] > 100 µM | [9] > 100 µM

CC1=C/C(=C2/N=C(N(C)C)SS2)C(C)=N1.[O-][Cl+3]([O-])([O-])O
inactive: [1] 10.6 µM | [2] > 100 µM | [3] > 100 µM | [4] > 100 µM | [5] > 100 µM | [6] > 100 µM | [7] > 100 µM | [8] > 100 µM
